Reference: ChEMBL document CHEMBL1201861, “Genomics of Drug Sensitity in Cancer screening data, Wellcome Trust Sanger Institute”

Tests used:
Experiment in all cases: cells
Details in all cases: Homo sapiens
COLO-792 = type: functional, cell-based
Description: SANGER: Inhibition of human COLO-792 cell growth in a cell viability assay.

Ca9-22 = type: functional, cell-based;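 further: growth inhibition of Ca9-22 cells, read out with a cell viability assay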
Description: SANGER: Inhibition of human Ca9-22 cell growth in a cell viability assay.

Daudi = type: functional, cell-based;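 further: growth inhibition of Daudi cells, read out by a viability assay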
Description: SANGER: Inhibition of human Daudi cell growth in a cell viability assay.

Detroit 562 = type: functional, cell-based;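 further: growth inhibition of human Detroit 562 cells, read out by a cell viability assay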
Description: SANGER: Inhibition of human Detroit562 cell growth in a cell viability assay.

EB2 = type: functional, cell-based;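 further: growth inhibition of EB2 cells, read out with a cell viability assay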
Description: SANGER: Inhibition of human EB2 cell growth in a cell viability assay.

EFO-21 = type: functional, cell-based;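 further: growth inhibition of EFO-21 cells measured with a viability assay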
Description: SANGER: Inhibition of human EFO-21 cell growth in a cell viability assay.

GP5d = type: functional, cell-based;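 further: growth inhibition of human GP5d cells, read out with a cell viability assay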
Description: SANGER: Inhibition of human GP5d cell growth in a cell viability assay.

HCC2157 = type: functional, cell-based;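 further: growth inhibition of the cancer cell line, read out as cell viability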
Description: SANGER: Inhibition of human HCC2157 cell growth in a cell viability assay.

HCC38 = type: functional, cell-based;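 further: cell viability assay on the human HCC38 cell line, with IC50 marking the concentration that inhibits cell growth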
Description: SANGER: Inhibition of human HCC38 cell growth in a cell viability assay.

HO-1-N-1 = type: functional, cell-based;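 further: growth inhibition of human HO-1-N-1 cells, read out with a cell viability assay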
Description: SANGER: Inhibition of human HO-1-N-1 cell growth in a cell viability assay.

IST-SL2 = type: functional, cell-based;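 further: growth inhibition of human IST-SL2 cells, read out by a cell viability assay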
Description: SANGER: Inhibition of human IST-SL2 cell growth in a cell viability assay.

JEG-3 = type: functional, cell-based;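 further: growth inhibition of human JEG-3 cells, read out with a cell viability assay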
Description: SANGER: Inhibition of human JEG-3 cell growth in a cell viability assay.

KYSE-180 = type: functional, cell-based;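 further: growth inhibition of KYSE-180 cells, read out with a cell viability assay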
Description: SANGER: Inhibition of human KYSE-180 cell growth in a cell viability assay.

KYSE-510 = type: functional, cell-based;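 further: cell viability readout used to measure how strongly growth of the cell line is suppressed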
Description: SANGER: Inhibition of human KYSE-510 cell growth in a cell viability assay.

LCLC-97TM1 = type: functional, cell-based;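 further: cell viability assay measuring growth inhibition of human LCLC-97TM1 cells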
Description: SANGER: Inhibition of human LCLC-97TM1 cell growth in a cell viability assay.

LN-405 = type: functional, cell-based
Description: SANGER: Inhibition of human LN-405 cell growth in a cell viability assay.

M14 = type: functional, cell-based;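 further: growth inhibition of M14 cells, read out with a cell viability assay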
Description: SANGER: Inhibition of human M14 cell growth in a cell viability assay.

MC-IXC = type: functional, cell-based;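 further: growth inhibition of MC-IXC cells, read out with a cell viability assay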
Description: SANGER: Inhibition of human MC-IXC cell growth in a cell viability assay.

MCF7 = type: functional, cell-based;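 further: growth inhibition of human MCF7 cells, read out with a cell viability assay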
Description: SANGER: Inhibition of human MCF7 cell growth in a cell viability assay.

MDA-MB-134-VI = type: functional, cell-based
Description: SANGER: Inhibition of human MDA-MB-134-VI cell growth in a cell viability assay.

MEL-JUSO = type: functional, cell-based;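 further: growth inhibition of human MEL-JUSO cells, read out with a cell viability assay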
Description: SANGER: Inhibition of human MEL-JUSO cell growth in a cell viability assay.

MKN-28 = type: functional, cell-based;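 further: cell viability assay read-out, IC50 reflects suppression of growth of human MKN-28 cells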
Description: SANGER: Inhibition of human MKN28 cell growth in a cell viability assay.

MRK-nu-1 = type: functional, cell-based;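 further: cell viability assay measuring growth suppression of human MRK-nu-1 cells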
Description: SANGER: Inhibition of human MRK-nu-1 cell growth in a cell viability assay.

NCI-H1993 = type: functional, cell-based;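 further: growth inhibition of the cancer cell line, assessed with a cell viability assay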
Description: SANGER: Inhibition of human NCI-H1993 cell growth in a cell viability assay.

NCI-H2009 = type: functional, cell-based;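 further: cell viability assay measuring inhibition of NCI-H2009 cell growth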
Description: SANGER: Inhibition of human NCI-H2009 cell growth in a cell viability assay.

NCI-H2141 = type: functional, cell-based;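 further: growth inhibition of human NCI-H2141 cells, read out with a cell viability assay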
Description: SANGER: Inhibition of human NCI-H2141 cell growth in a cell viability assay.

NCI-H2171 = type: functional, cell-based;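 further: growth inhibition of human NCI-H2171 cells, read out by a cell viability assay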
Description: SANGER: Inhibition of human NCI-H2171 cell growth in a cell viability assay.

NCI-H650 = type: functional, cell-based;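 further: growth inhibition of NCI-H650 cells, read out by a viability assay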
Description: SANGER: Inhibition of human NCI-H650 cell growth in a cell viability assay.

NCI-H719 = type: functional, cell-based;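 further: growth inhibition of the cultured cell line, read out with a viability assay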
Description: SANGER: Inhibition of human NCI-H719 cell growth in a cell viability assay.

NCI-H748 = type: functional, cell-based;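 further: growth inhibition of NCI-H748 cells, measured by a cell viability assay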
Description: SANGER: Inhibition of human NCI-H748 cell growth in a cell viability assay.

OVCAR-8 = type: functional, cell-based;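 further: growth inhibition of human OVCAR-8 cells, read out by a cell viability assay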
Description: SANGER: Inhibition of human OVCAR-8 cell growth in a cell viability assay.

P31-FUJ = type: functional, cell-based;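 further: growth inhibition of P31-FUJ cells, read out with a viability assay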
Description: SANGER: Inhibition of human P31-FUJ cell growth in a cell viability assay.

RD = type: functional, cell-based
Description: SANGER: Inhibition of human RD cell growth in a cell viability assay.

S-117 = type: functional, cell-based
Description: SANGER: Inhibition of human S-117 cell growth in a cell viability assay.

SBC-5 = type: functional, cell-based;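 further: cell viability assay read-out, IC50 is the concentration that inhibits growth of the cells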
Description: SANGER: Inhibition of human SBC-5 cell growth in a cell viability assay.

SCC-4 = type: functional, cell-based;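 further: growth inhibition of human SCC-4 cells, read out as cell viability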
Description: SANGER: Inhibition of human SCC-4 cell growth in a cell viability assay.

SK-HEP1 = type: functional, cell-based, SK-HEP-1;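 further: cell viability readout used to quantify reduction in proliferation of human SK-HEP-1 cells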
Description: SANGER: Inhibition of human SK-HEP-1 cell growth in a cell viability assay.

SK-LU-1 = type: functional, cell-based;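 further: cell viability assay measuring growth inhibition of human SK-LU-1 cells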
Description: SANGER: Inhibition of human SK-LU-1 cell growth in a cell viability assay.

SK-MEL-24 = type: functional, cell-based;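 further: growth inhibition read out by a cell viability assay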
Description: SANGER: Inhibition of human SK-MEL-24 cell growth in a cell viability assay.

SNU-387 = type: functional, cell-based
Description: SANGER: Inhibition of human SNU-387 cell growth in a cell viability assay.

SNU-423 = type: functional, cell-based
Description: SANGER: Inhibition of human SNU-423 cell growth in a cell viability assay.

SW1463 = type: functional, cell-based;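 further: growth inhibition of SW1463 cells, determined with a cell viability assay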
Description: SANGER: Inhibition of human SW1463 cell growth in a cell viability assay.

SW1710 = type: functional, cell-based;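 further: growth inhibition of SW1710 cells, determined with a cell viability assay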
Description: SANGER: Inhibition of human SW1710 cell growth in a cell viability assay.

SW-620 = type: functional, cell-based;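 further: growth inhibition of human SW-620 cells, measured by a cell viability assay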
Description: SANGER: Inhibition of human SW620 cell growth in a cell viability assay.

SAOS-2 = type: functional, cell-based;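 further: growth inhibition of human Saos-2 cells determined by a cell viability assay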
Description: SANGER: Inhibition of human Saos-2 cell growth in a cell viability assay.

SiHa = type: functional, cell-based;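 further: Viability-based readout of growth inhibition in SiHa cells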
Description: SANGER: Inhibition of human SiHa cell growth in a cell viability assay.

T98G = type: functional, cell-based;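 further: growth inhibition of T98G cells, read out by a cell viability assay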
Description: SANGER: Inhibition of human T98G cell growth in a cell viability assay.

23132-87 = type: functional, cell-based
Description: SANGER: Inhibition of human 23132-87 cell growth in a cell viability assay.

5637 = type: functional, cell-based
Description: SANGER: Inhibition of human 5637 cell growth in a cell viability assay.

639-V = type: functional, cell-based;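 further: growth inhibition of 639-V cells, read out with a cell viability assay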
Description: SANGER: Inhibition of human 639-V cell growth in a cell viability assay.

647-V = type: functional, cell-based;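 further: growth inhibition of 647-V cells, read out with a cell viability assay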
Description: SANGER: Inhibition of human 647-V cell growth in a cell viability assay.

A2058 = type: functional, cell-based;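 further: reduction of A2058 cell growth, read out with a viability assay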
Description: SANGER: Inhibition of human A2058 cell growth in a cell viability assay.

ABC-1 = type: functional, cell-based;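 further: growth inhibition of human ABC-1 cells, read out by a cell viability assay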
Description: SANGER: Inhibition of human ABC-1 cell growth in a cell viability assay.

BEN = type: functional, cell-based;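 further: growth inhibition of the BEN cell line, read out with a cell viability assay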
Description: SANGER: Inhibition of human BEN cell growth in a cell viability assay.

BHT-101 = type: functional, cell-based
Description: SANGER: Inhibition of human BHT-101 cell growth in a cell viability assay.

BT-20 = type: functional, cell-based;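 further: cell viability assay measuring suppression of growth in human BT-20 cells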
Description: SANGER: Inhibition of human BT-20 cell growth in a cell viability assay.

C32 = type: functional, cell-based;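 further: cell viability assay, with IC50 reflecting inhibition of C32 cell growth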
Description: SANGER: Inhibition of human C32 cell growth in a cell viability assay.

TYK-nu = type: functional, cell-based;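 further: growth inhibition of human TYK-nu cells, read out by a cell viability assay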
Description: SANGER: Inhibition of human TYK-nu cell growth in a cell viability assay.

U-698-M = type: functional, cell-based
Description: SANGER: Inhibition of human U-698-M cell growth in a cell viability assay.

YAPC = type: functional, cell-based
Description: SANGER: Inhibition of human YAPC cell growth in a cell viability assay.

CAPAN-1 = type: functional, cell-based
Description: SANGER: Inhibition of human CAPAN-1 cell growth in a cell viability assay.

Structure (SMILES): CCNC(=O)c1noc(-c2cc(C(C)C)c(O)cc2O)c1-c1ccc(CN2CCOCC2)cc1 [LUMINESPIB]
- IC50 (COLO-792): 88.5 nM
- IC50 (Ca9-22): 28 nM
- IC50 (Daudi): 33.8 nM
- IC50 (Detroit 562): 38.7 nM
- IC50 (EB2): 72.9 nM
- IC50 (EFO-21): 89.9 nM
- IC50 (GP5d): 27.2 nM
- IC50 (HCC2157): 57.3 nM
- IC50 (HCC38): 37.7 nM
- IC50 (HO-1-N-1): 25.5 nM
- IC50 (IST-SL2): 57.4 nM
- IC50 (JEG-3): 95.1 nM
- IC50 (KYSE-180): 5.86 nM
- IC50 (KYSE-510): 14.4 nM
- IC50 (LCLC-97TM1): 13 nM
- IC50 (LN-405): > 256 nM
- IC50 (M14): 218 nM
- IC50 (MC-IXC): 17.4 nM
- IC50 (MCF7): 3.35 nM
- IC50 (MDA-MB-134-VI): 174 nM
- IC50 (MEL-JUSO): 16.8 nM
- IC50 (MKN-28): 30.1 nM
- IC50 (MRK-nu-1): 23 nM
- IC50 (NCI-H1993): > 256 nM
- IC50 (NCI-H2009): 27.6 nM
- IC50 (NCI-H2141): 238 nM
- IC50 (NCI-H2171): 186 nM
- IC50 (NCI-H650): 21.2 nM
- IC50 (NCI-H719): > 256 nM
- IC50 (NCI-H748): > 256 nM
- IC50 (OVCAR-8): 32.8 nM
- IC50 (P31-FUJ): > 256 nM
- IC50 (RD): 26.6 nM
- IC50 (S-117): 127 nM
- IC50 (SBC-5): 91.9 nM
- IC50 (SCC-4): 28.1 nM
- IC50 (SK-HEP1): 3.36 nM
- IC50 (SK-LU-1): 18.5 nM
- IC50 (SK-MEL-24): 42.8 nM
- IC50 (SNU-387): 92.2 nM
- IC50 (SNU-423): 10.5 nM
- IC50 (SW1463): > 256 nM
- IC50 (SW1710): 1.86 nM
- IC50 (SW-620): 19.2 nM
- IC50 (SAOS-2): 76 nM
- IC50 (SiHa): > 256 nM
- IC50 (T98G): 74.2 nM
- IC50 (23132-87): 105 nM
- IC50 5637: 28.2 nM
- IC50 (639-V): 4.85 nM
- IC50 (647-V): 149 nM
- IC50 (A2058): 29.3 nM
- IC50 (ABC-1): 87.6 nM
- IC50 (BEN): 116 nM
- IC50 (BHT-101): 58.8 nM
- IC50 (BT-20): > 256 nM
- IC50 (C32): > 256 nM
- IC50 (TYK-nu): > 256 nM
- IC50 (U-698-M): 73.8 nM
- IC50 (YAPC): > 256 nM
- IC50 (CAPAN-1): 71.4 nM

Structure (SMILES): CO[C@@]12[C@H](COC(N)=O)C3=C(C(=O)C(C)=C(N)C3=O)N1C[C@@H]1N[C@@H]12 [MITOMYCIN]
- IC50 (COLO-792): 1500 nM
- IC50 (Ca9-22): 156 nM
- IC50 (Daudi): 392 nM
- IC50 (Detroit 562): 170 nM
- IC50 (EB2): 65.4 nM
- IC50 (EFO-21): 591 nM
- IC50 (GP5d): 84 nM
- IC50 (HCC2157): 727 nM
- IC50 (HCC38): 604 nM
- IC50 (HO-1-N-1): 441 nM
- IC50 (IST-SL2): 388 nM
- IC50 (JEG-3): 2230 nM
- IC50 (KYSE-180): 202 nM
- IC50 (KYSE-510): < 62.5 nM
- IC50 (LCLC-97TM1): 139 nM
- IC50 (LN-405): 2150 nM
- IC50 (M14): 1340 nM
- IC50 (MC-IXC): < 62.5 nM
- IC50 (MCF7): < 62.5 nM
- IC50 (MDA-MB-134-VI): 2160 nM
- IC50 (MEL-JUSO): 51.3 nM
- IC50 (MKN-28): 230 nM
- IC50 (MRK-nu-1): 110 nM
- IC50 (NCI-H1993): > 16000 nM
- IC50 (NCI-H2009): 289 nM
- IC50 (NCI-H2141): 853 nM
- IC50 (NCI-H2171): 1500 nM
- IC50 (NCI-H650): 344 nM
- IC50 (NCI-H719): 35.1 nM
- IC50 (NCI-H748): 59.5 nM
- IC50 (OVCAR-8): 176 nM
- IC50 (P31-FUJ): 3460 nM
- IC50 (RD): 1900 nM
- IC50 (S-117): 592 nM
- IC50 (SBC-5): < 62.5 nM
- IC50 (SCC-4): 388 nM
- IC50 (SK-HEP1): 646 nM
- IC50 (SK-LU-1): < 62.5 nM
- IC50 (SK-MEL-24): 1370 nM
- IC50 (SNU-387): 2930 nM
- IC50 (SNU-423): 1520 nM
- IC50 (SW1463): 2080 nM
- IC50 (SW1710): 72.6 nM
- IC50 (SW-620): 39.8 nM
- IC50 (SAOS-2): 1410 nM
- IC50 (SiHa): 1890 nM
- IC50 (T98G): 524 nM
- IC50 (23132-87): 30.5 nM
- IC50 5637: 31.9 nM
- IC50 (639-V): < 62.5 nM
- IC50 (647-V): 87.4 nM
- IC50 (A2058): 115 nM
- IC50 (ABC-1): 61.2 nM
- IC50 (BEN): 935 nM
- IC50 (BHT-101): 1740 nM
- IC50 (BT-20): 312 nM
- IC50 (C32): 1530 nM
- IC50 (TYK-nu): 58.7 nM
- IC50 (U-698-M): 1600 nM
- IC50 (YAPC): 4370 nM
- IC50 (CAPAN-1): 116 nM

Structure (SMILES): C/C=C(/C)C(=O)O[C@H]1C(C)=C2[C@H]([C@@H]1OC(=O)CCCCCCC)[C@@](C)(OC(C)=O)C[C@H](OC(=O)CCC)[C@@]1(O)[C@H]2OC(=O)[C@@]1(C)O [THAPSIGARGIN]
- IC50 (COLO-792): 59.6 nM
- IC50 (Ca9-22): 22.8 nM
- IC50 (Daudi): 3.63 nM
- IC50 (Detroit 562): 2.52 nM
- IC50 (EB2): 10.4 nM
- IC50 (EFO-21): 16.4 nM
- IC50 (GP5d): 41.7 nM
- IC50 (HCC2157): 3.49 nM
- IC50 (HCC38): 1.37 nM
- IC50 (HO-1-N-1): > 512 nM
- IC50 (IST-SL2): 6.76 nM
- IC50 (JEG-3): 9.78 nM
- IC50 (KYSE-180): 1.16 nM
- IC50 (KYSE-510): < 2 nM
- IC50 (LCLC-97TM1): < 2 nM
- IC50 (LN-405): > 512 nM
- IC50 (M14): 14 nM
- IC50 (MC-IXC): 37.6 nM
- IC50 (MCF7): < 2 nM
- IC50 (MDA-MB-134-VI): > 512 nM
- IC50 (MEL-JUSO): < 2 nM
- IC50 (MKN-28): 9.79 nM
- IC50 (MRK-nu-1): 23.2 nM
- IC50 (NCI-H1993): > 512 nM
- IC50 (NCI-H2009): 1.63 nM
- IC50 (NCI-H2141): 85 nM
- IC50 (NCI-H2171): 12.5 nM
- IC50 (NCI-H650): 296 nM
- IC50 (NCI-H719): > 512 nM
- IC50 (NCI-H748): 31.3 nM
- IC50 (OVCAR-8): 25 nM
- IC50 (P31-FUJ): 72.1 nM
- IC50 (RD): 7.35 nM
- IC50 (S-117): 40.9 nM
- IC50 (SBC-5): 8.08 nM
- IC50 (SCC-4): 10.4 nM
- IC50 (SK-HEP1): 7.8 nM
- IC50 (SK-LU-1): 1.16 nM
- IC50 (SK-MEL-24): > 512 nM
- IC50 (SNU-387): 2.2 nM
- IC50 (SNU-423): < 2 nM
- IC50 (SW1463): > 512 nM
- IC50 (SW1710): < 2 nM
- IC50 (SW-620): 3.02 nM
- IC50 (SAOS-2): 14.7 nM
- IC50 (SiHa): > 512 nM
- IC50 (T98G): 0.741 nM
- IC50 (23132-87): 31.4 nM
- IC50 5637: 11.4 nM
- IC50 (639-V): 0.512 nM
- IC50 (647-V): 13.7 nM
- IC50 (A2058): 2.69 nM
- IC50 (ABC-1): 3.19 nM
- IC50 (BEN): 13.9 nM
- IC50 (BHT-101): 88.1 nM
- IC50 (BT-20): > 512 nM
- IC50 (C32): 309 nM
- IC50 (TYK-nu): < 2 nM
- IC50 (U-698-M): 77.4 nM
- IC50 (YAPC): 89.6 nM
- IC50 (CAPAN-1): 13.5 nM
